Values quoted from earlier work as cited in US4115541A (priority 1975, dated 1978).

Conditions: physical; cited from earlier work

[18FH] [fluorine-18]
half-life (radionuclide): 1.83 h
